Among the data in patent publication US20240124454A1, “TRICYCLIC COMPOUND AND USE THEREOF” (NANJING ZAIMING PHARMACEUTICAL CO., LTD., priority 2020, published 2024) are IC50 values, retold here.

Read-outs that look alike come from different tables or passages of the source.

One assay deals with MAT2A (Homo sapiens (Human), UniProt P31153). Put plainly: MAT2A biochemical test (inorganic phosphate colorimetric, PiColorLock). The conditions noted are these: read-out: MAT2A inhibitory Activity IC50. From the text: Test Example 1. Biochemical Test
Sequence of MAT2A (P31153 whole entry): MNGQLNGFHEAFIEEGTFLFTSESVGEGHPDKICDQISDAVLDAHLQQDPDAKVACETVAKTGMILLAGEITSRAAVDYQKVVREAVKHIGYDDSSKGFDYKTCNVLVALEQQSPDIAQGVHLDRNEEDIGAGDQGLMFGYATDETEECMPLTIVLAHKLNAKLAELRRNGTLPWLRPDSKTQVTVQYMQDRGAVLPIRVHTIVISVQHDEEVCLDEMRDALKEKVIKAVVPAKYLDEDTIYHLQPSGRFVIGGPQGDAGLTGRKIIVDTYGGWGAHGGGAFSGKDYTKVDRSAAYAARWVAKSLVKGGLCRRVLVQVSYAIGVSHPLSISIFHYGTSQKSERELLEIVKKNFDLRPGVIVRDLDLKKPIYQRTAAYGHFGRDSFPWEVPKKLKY
The brief introduction of the test principle: L-methionine and ATP can be converted into SAM, inorganic phosphate, and inorganic diphosphate under the catalysis of MAT2A enzymes. The content of inorganic phosphate in the sample can be quantitatively determined by adding a developer such as ammonium molybdate or the like to the enzymatic reaction mixture, thereby reflecting the enzymatic activity of MAT2A.
(§1) Reference: The experiment referred to the method disclosed in patent WO2018045071.
Material: MAT2A screening kits were purchased from BPS bioscience (U.S.); 384-well plates were purchased from Corning Company (U.S.). • 1. MAT2A protein (Pharmaron Beijing Co., Ltd.); • 2. L-methionine (Sigma #M9625-5G) • 3. ATP (Sigma #A7699-1G) • 4. KCl (Sigma #60142-500ML-F) • 5. Tris (Sigma #T2663-1L) • 6. MgCl2 (Sigma #M1028) • 7. EDTA (Invitrogen #AM9260G) • 8. BSA (Sangon Biotech #A500023-0100) • 9. PiColorLock (abcam #ab270004)
Detection method: In the experimental group, the test compound was dissolved in DMSO, diluted to a final concentration of 10 μM using Echo, and diluted 3-fold. 80 nL of the dilution was transferred to a 384-well plate.
The experimental buffer (50 mM Tris, 50 mM KCl, 15 mM MgCl2, 100 μM EDTA, 0.005% BSA) was prepared. The MAT2A protein was diluted with the experimental buffer (at final concentration of […]). 40 μL of 2×MAT2A solution was added to the 384-well plate. The plate was centrifuged at 1000 rpm for 1 min and incubated at room temperature for 120 min.
L-methionine and ATP (the final concentration of L-methionine was […] and the final concentration of ATP was 400 μM) were diluted with the experimental buffer. 40 μL of 2×L-methionine and ATP solution was added to initiate the reaction. The plate was centrifuged at 1000 rpm for 1 min and incubated at room temperature for 90 min.
The PiColorLock™ reaction catalyst was mixed with the PiColorLock™ buffer at a ratio of 1:100 according to the instructions. 20 μL was added to each well, and the plate was shaken for 30 s. 8 μL stabilizing reagent was added, and the plate was shaken for 30 s. The signal values were measured after 30 min of incubation at room temperature.
A negative control group and a positive control group were respectively used as Bottom and Top. The negative control group was not added with MAT2A protein, and other operations were consistent with those of the experimental group. The positive control group was not added with the test compound, only added with DMSO in the same volume, and other operations were consistent with those of the experimental group.
(§2) The % Compound inhibition was calculated and fitted to give the IC50 of the compound.
(§3) % Compound inhibition=1-100%×(Signal−Bottom)/(Top−Bottom).
(§4) Signal referred to the signal value of the experimental group, Bottom referred to the average signal value of the negative control group, and Top referred to the average signal value of the positive control group.
Under the condition of this experiment, the inhibitory effect of the test compound on MAT2A can be expressed as the IC50 of the inhibition on the phosphate production level during the enzymatic reaction.

The subject of the next assay is HCT116 MTAP^−/− cells. Briefly: Cell proliferation inhibition test (Cell-Titer Glo), HCT116 MTAP−/−. In kind it is cell-based, human. The note with it: Homo sapiens, HCT-116, 144 h, 6 days, read-out: HCT116 MTAP−/− Antiproliferative activity IC50. Here is the method:
(§5) Test Example 3. Cell Proliferation Inhibition Test of Human Colon Cancer HCT116 WT Cells and HCT116 MTAP-1-Cells
(§6) The brief introduction of the test principle: After the test MAT2A inhibitor was incubated with cancer cells for a period of time, the effect of the test compound on cell proliferation was measured using a cell proliferation count method based on the ATP content.
as §1
(§7) Material and cell: HCT116 WT cells and HCT116 MTAP^−/− cells were purchased from KYinno; fetal bovine serum, McCoy's 5a culture medium, and penicillin-streptomycin were purchased from Gibco Company (U.S.), 96-well plates were purchased from Corning Company (U.S.), and the Cell-Titer Glo reagent was purchased from Promega Company (U.S.).
(§8) Cell culture: HCT116 WT cells and HCT116 MTAP^−/− cells were cultured with a McCoy's 5a medium containing 10% fetal bovine serum+1% penicillin-streptomycin at 37° C. with 5% CO2.
(§9) Cells at logarithmic growth phase were available for the experiment.
(§10) Cell proliferation activity test: The Cell-Titer Glo reagent was used to test the compound for inhibitory activity on proliferation of both HCT116 WT and HCT116 MTAP^−/− cell strains. The cells were adjusted to a concentration of 400 cells per well, seeded on a 96-well plate, and incubated overnight at 37° C. with 5% CO2.
(§11) In the experimental group, the test compound was diluted sequentially with DMSO and a culture medium, and transferred to a cell plate at a final concentration of 10 μM, 3-fold dilution. The cells were continuously cultured at 37° C. with 5% CO2 for 6 days. The Cell-Titer Glo reagent was added and the cell activity was measured.
(§12) A negative control group and a positive control group were respectively used as Bottom and Top. The negative control group was not added with cells, only added with the culture medium in the same volume, and other operations were consistent with those of the experimental group. The positive control group was not added with the test compound, only added with DMSO in the same volume, and other operations were consistent with those of the experimental group.
as §2, §3, §4
(§13) HCT116 MTAP^−/− cells are cells not expressing MTAP protein obtained by site-directed knockout of wild type HCT116 (HCT116 WT) cells by gene knockout. Synthetic lethality will occur due to MAT2A inhibition and the deletion of MTAP, thereby causing tumor cell death. The activity and selectivity of the MAT2A inhibitor can be evaluated by testing the antiproliferative activity of the MAT2A inhibitor on human colon cancer HCT116 MTAP^−/− cells and human colon cancer HCT116 WT.

The test system of a further assay is HCT116 WT cells. Briefly: Cell proliferation inhibition test (Cell-Titer Glo), HCT116 WT. It counts as cell-based, human. The note with it: Homo sapiens, HCT-116, 144 h, 6 days, read-out: HCT116 WT Antiproliferative activity IC50. On the procedure:
as §5, §6, §1, §7, §8, §9, §10, §11, §12, §2, §3, §4, §13

For `Cn1cnc2c(=O)n(-c3cccnc3C(F)(F)F)c3nc(C(F)(F)F)ccc3c21` (atropisomer, axis not shown) [Compound 41, 1-methyl-7-(trifluoromethyl)-5-(2-(trifluoromethyl)pyridin-3-yl)-1,5-dihydro-4H-imidazo[4,5-c][1,8]naphthyridin-4-one], the IC50 at MAT2A (class symbols) was < 100 nM; on MAT2A (numeric values), 56.8 nM; in the assay with HCT116 MTAP^−/− cells, 164 nM; with HCT116 WT cells, 7860 nM.
The matching figures for `Cn1cnc2c(=O)n(-c3cccnc3C3CC3)c3nc(C(F)(F)F)ccc3c21` (atropisomer, axis not shown) [Compound 42, 5-(2-cyclopropylpyridin-3-yl)-1-methyl-7-(trifluoromethyl)-1,5-dihydro-4H-imidazo[4,5-c][1,8]naphthyridin-4-one]: < 100 nM, 47 nM, 244 nM and 2200 nM.
The matching figures for `Cc1ncccc1-n1c(=O)c2ncn(C)c2c2ccc(Cl)cc21` (atropisomer, axis not shown) [Compound 46, 7-chloro-1-methyl-5-(2-methylpyridin-3-yl)-1,5-dihydro-4H-imidazo[4,5-c]quinolin-4-one]: < 100 nM, 48.5 nM, 87 nM and 473 nM.
Regarding `Cn1cnc2c(=O)n(-c3cccnc3C(F)(F)F)c3cc(Cl)ccc3c21` (atropisomer, axis not shown) [Compound 47, 7-chloro-1-methyl-5-(2-(trifluoromethyl)pyridin-3-yl)-1,5-dihydro-4H-imidazo[4,5-c]quinolin-4-one], the IC50 was < 100 nM on MAT2A (class symbols), 50.2 nM on MAT2A (numeric values), 232 nM in the assay with HCT116 MTAP^−/− cells and > 10000 nM in the assay on HCT116 WT cells.
With `Cn1cnc2c(=O)n(-c3cccnc3C3CC3)c3cc(Cl)ccc3c21` (atropisomer, axis not shown) [Compound 49, 7-chloro-5-(2-cyclopropylpyridin-3-yl)-1-methyl-1,5-dihydro-4H-imidazo[4,5-c]quinolin-4-one], the IC50 was < 100 nM on MAT2A (class symbols), 28.1 nM at MAT2A (numeric values), 87.9 nM in the assay with HCT116 MTAP^−/− cells and 1620 nM in the assay with HCT116 WT cells.
Consider `O=c1c2ncoc2c2ccc(C(F)(F)F)nc2n1-c1cccnc1C1CC1` (atropisomer, axis not shown) [Compound 81, 5-(2-cyclopropylpyridin-3-yl)-7-(trifluoromethyl)oxazolo[4,5-c][1,8]naphthyridin-4(5H)-one], for which the IC50 at MAT2A (class symbols) was < 100 nM; on MAT2A (numeric values), 52.3 nM; in the assay on HCT116 MTAP^−/− cells, 186 nM; in the assay on HCT116 WT cells, 1940 nM.
With `Cc1c(F)cccc1-n1c(=O)c2ncn(C)c2c2ccc(C(F)(F)F)nc21` (single isomer, unassigned) [Compound 43-P2, 5-(3-fluoro-2-methylphenyl)-1-methyl-7-(trifluoromethyl)-1,5-dihydro-4H-imidazo[4,5-c][1,8]naphthyridin-4-one], the IC50 at MAT2A (class symbols) was < 100 nM; at MAT2A (numeric values) it was 28.2 nM; in the assay on HCT116 MTAP^−/− cells, 79 nM; with HCT116 WT cells, 355 nM.
As for `Cc1ncccc1-n1c(=O)c2ncn(C)c2c2ccc(Cl)cc21` (single isomer, unassigned) [Compound 46-P2, 7-chloro-1-methyl-5-(2-methylpyridin-3-yl)-1,5-dihydro-4H-imidazo[4,5-c]quinolin-4-one], the IC50 on MAT2A (class symbols) is < 100 nM; at MAT2A (numeric values), 19.8 nM; in the assay with HCT116 MTAP^−/− cells, 33 nM; in the assay on HCT116 WT cells it was 214 nM.
As to `Cn1cnc2c(=O)n(-c3cccnc3C(F)(F)F)c3cc(Cl)ccc3c21` (single isomer, unassigned) [Compound 47-P2, 7-chloro-1-methyl-5-(2-(trifluoromethyl)pyridin-3-yl)-1,5-dihydro-4H-imidazo[4,5-c]quinolin-4-one], the IC50 at MAT2A (class symbols) was < 100 nM; at MAT2A (numeric values) it was 23.3 nM; in the assay on HCT116 MTAP^−/− cells it was 130 nM; with HCT116 WT cells, 8330 nM.
Turning to `COc1c(F)cccc1-n1c(=O)c2ncn(C)c2c2ccc(C(F)(F)F)nc21` (single isomer, unassigned) [Compound 70-P2, 5-(3-fluoro-2-methoxyphenyl)-1-methyl-7-(trifluoromethyl)-1,5-dihydro-4H-imidazo[4,5-c][1,8]naphthyridin-4-one], the IC50 was < 100 nM at MAT2A (class symbols), 37.9 nM on MAT2A (numeric values), 490 nM in the assay on HCT116 MTAP^−/− cells and 7940 nM with HCT116 WT cells.
Consider `Cn1cnc2c(=O)n(-c3cnccn3)c3nc(C(F)(F)F)ccc3c21` [Compound 77, 1-methyl-5-(pyrazin-2-yl)-7-(trifluoromethyl)-1,5-dihydro-4H-imidazo[4,5-c][1,8]naphthyridin-4-one], for which the IC50 is 100 to 500 nM on MAT2A (class symbols) and 337 nM at MAT2A (numeric values).
For `Cn1cnc2c(=O)n(-c3cccc(F)c3F)c3nc(C(F)(F)F)ccc3c21` [Compound 78, 5-(2,3-difluorophenyl)-1-methyl-7-(trifluoromethyl)-1,5-dihydro-4H-imidazo[4,5-c][1,8]naphthyridin-4-one], the IC50 at MAT2A (class symbols) is < 100 nM; at MAT2A (numeric values) it was 80.2 nM.
Taken in the same sequence, the figures for `Cc1ncncc1-n1c(=O)c2ncn(C)c2c2ccc(C(F)(F)F)nc21` [Compound 79, 1-methyl-5-(4-methylpyrimidin-5-yl)-7-(trifluoromethyl)-1,5-dihydro-4H-imidazo[4,5-c][1,8]naphthyridin-4-one] were 100 to 500 nM and 102 nM.
Taken in the same sequence, the figures for `Cc1ncccc1-n1c(=O)c2ncoc2c2ccc(Cl)cc21` [Compound 83, 7-chloro-5-(2-methylpyridin-3-yl)oxazolo[4,5-c]quinolin-4(5H)-one] were < 100 nM and 54.7 nM.
The matching figures for `Cn1cnc2c(=O)n(-c3cccnc3C(F)(F)F)c3cc(C(F)(F)F)ccc3c21` [Compound 84, 1-methyl-7-(trifluoromethyl)-5-(2-trifluoromethylpyridin-3-yl)-1,5-dihydro-4H-imidazo[4,5-c]quinolin-4-one]: < 100 nM and 53.4 nM.
